Measured values as given in patent US6297257A, “Benzazine derivatives phosphodiesterase 4 inhibitors” (Zambon Group S.p.A., priority 1997, dated 2001).
Where a name gives a salt, the structure may show the parent alone.

Experiments:
[1] = test system: PDE 4; assay: PDE 4 Enzyme Inhibition (SPA); assay type: biochemical; settings: enzyme from human PMNs, cAMP 1 μM; for IC50: 40 minutes at 30° C.
Excerpt: PDE 4 Enzyme Inhibition Study a) Purification of Human Polymorphonucleate Leukocytes The polymorphonucleate leukocytes (PMNs) were isolated from peripheral blood of healthy volunteers according to what described by Boyum A., Scand. J. Immunol., 1976, 50 suppl., 9). Shortly, the isolation of the PMNs was effected by Ficoll-Paque gradient centrifugation followed by sedimentation on dextrane and the erythrocyte contanunation was eliminated by hypotonic lysis. b) PDE 4 Enzyme Purification The human PMNs were re-suspended in TRIS/HCl buffer (10 mM pH 7.8) containing MgCl2 (5 mM), EGTA (4 mM), mercaptoethanol (5 mM), TRITON-X100 (1%), pepstatin A (1 μM), PMSF (100 μM) and leupeptin (1 μM), and homogenized by Polytron. The homogenate was centrifuged at 25,000×g per 30 minutes at 4° C. and the sumatant was used for the PDE 4 enzyme purification by ion exchange chromatography using the FPLC technique according to what described by Schudt C. et al., Naunyn-Schmidberg's Arch. Pharmacol., 1991, 334, 682. The surnatant was seeded on a UNO Q12 column (Bio-Rad) and the enzyme was eluted by sodium acetate gradient from 50 mM to 1M. The fractions containing enzymatic activity were joined, dialysed against water and concentrated. The resulting PDE 4 enzyme was stored at -20° C. in the presence of ethylenglycole (30%) v/v) till the use c) PDE 4 Enzyme Inhibition The enzyme activity was evaluated with an Amersham kit based on the SPA technique (Scintillation Proximity Assay). The enzymatic reaction was effected in a total volume of 100 μl of TRIS/HCl buffer (50 mM, pH7.5), MgCl2, (8.3 mM), EGTA (1.7 mM), cAMP (1 μM) and [^3 H]cAMP (~100.000 dpm). The compounds of the invention were added at the wanted concentrations. The reaction was started by adding the enzyme (15 μg protein/ml) in 40 minutes at 30° C. and stopped by adding 50 μl of suspension of SPA particles. The radioactivity due to the particles was measured in β-emitting counter. The IC50 values were calculated on 9 equidistant concentrations in logarithmic scale using a 4-parameters logistic function by a software.

[2] = test system: TNFα; assay: TNFα Synthesis Inhibition (LPS-induced, human monocytes, ELISA); assay type: cell-based; settings: Monocyte, LPS 1 ng/ml, 16 hours at 37° C.
Experimental: TNFα Inhibition Test a) Human Monocytes Isolation The monocytes were isolated from peripheral blood of healthy volunteers according the procedure of […]. Natl. Cancer Inst., 1964, 32, 507. The monocytes and lymphocytes population was isolated by Ficoll gradient centrifugation, and the cells diluted at a density of 2.5×10^6 cells/ml in RPMI1640 incubation containing 1% inactivated bovine fetal serum, penicillin (100 U/ml) and streptomycin (100 U/ml) were placed in 24-wells plates (1 ml/well) and left to adhere for 1 hour at 37° C. with 5% CO2. At the end of the incubation the lymphocytes not adhering were removed by aspiration and the monocytes adhered to the plate were used in the next step. b) TNFα Synthesis Inhibition The TNFα synthesis from human monocytes was measured according to the method of Barnette M. et al., Biochemical Pharmacology, 1996, 51, 949. The monocytes were incubated for 1 hour with 1 ml of RPMI1640 incubation medium (1% inactivated bovine serum, 100 U/ml penicillin and streptomycin) containing different concentrations of the products according to the present invention or the carrier only for the controls. The TNFα synthesis from monocytes was induced by adding 1 ng/ml of LPS (lipopolysaccharide of E. Coli) and after 16 hours of incubation at 37° C., 5% CO2, the incubation medium was removed, and the surnatant stored at -80° C. until the measurement. The TNFα levels were determined by ELISA test with an Amersham kit. The results are set forth in Table 2 as IC50 measured with the same calculation of example 53.

[3] = target: T1, PDE 3 (Homo sapiens, UniProt Q14432); assay: PDE 3 Enzyme Inhibition Test (SPA); assay type: biochemical; settings: enzyme from human platelets; cAMP 1 μM; head prints (μM), no concentration figure
T1 construct: the supernatant was applied to a UNO Q12 column (Bio-Rad); from tissue; host or cells: human platelets from platelet rich plasma
Experimental: (§1) PDE 3 and 5 Enzymes Inhibition Test a) Human Platelet Preparation
(§2) Human platelets were prepared from platelet rich plasma (PRP) obtained from the Hematological Dept. of the "L. Sacco" Hospital of Milan. […]
(§3) b) Purification of PDE 3 and PDE 5 with Fast Protein Liquid Chromatography (FPLC) Before the chromatographic step, platelets were thawed and 50 ml of 20 mM TRIS (pH=6.5) containing 5 mM β-mercapto-ethanol, 2 mM EDTA, 50 mM sodium acetate and 50 μM PMSF (homogenization buffer) were added. The platelet suspension was then homogenized by a Polytron homogenizer (Polytron PT 1200) for 20 seconds. The homogenate was centrifuged at 14,500 rpm for 20 minutes at 4° C., and the supernatant was applied to a UNO Q12 column (Bio-Rad) pre-equilibrated with the PMSF. A flow rate of 4.5 ml/min was used throughout the ion exchange chromatography procedure. The column was washed with PMSF (180 ml) and PDE 3 and PDE 5 were eluted by sodium acetate linear gradient from 0.05M to 1M. The fractions containing enzymatic activity were joined, dialyzed against water and concentrated 10 times by ultrafiltration. The resulting solution was stored at -20° C. in the presence of ethylenglycole (30%) v/v) until use. […]
(§4) c) Assay of Phoshodiesterase Activity
(§5) The enzyme activity was assessed with an Amersham kit based on the SPA technique (Scintillation Proximity Assay). The enzymatic reaction was effected in a total volume of 100 μl of TRIS/HCl buffer (50 mM, pH7.5), MgCl2 (8.3 mM), EGTA (1.7 mM), cAMP (for PDE 3 assay) or cGMP (for PDE 5 assay) (1 μM), [^3 H]cAMP or [^3 H]cGMP (10 μl), and 10 μl of the compounds of the invention. The reaction was started by adding the enzyme (10 μl) incubated for 40 minutes at 30° C. and stopped by adding 50 μl of SPA beads. The radioactivity due to the particles was measured in β-emitting counter. The results are expressed as percent activity versus the control present in each test.

[4] = target: T2, PDE 5 (Homo sapiens, UniProt O76074); assay: PDE 5 Enzyme Inhibition Test (SPA); assay type: biochemical; settings: enzyme from human platelets; cGMP 1 μM; head prints (μM), no concentration figure
T2 construct: from tissue; host or cells: human platelets from platelet rich plasma
Experimental: as §1, §2, §3, §4, §5

T1 sequence (Q14432 whole entry): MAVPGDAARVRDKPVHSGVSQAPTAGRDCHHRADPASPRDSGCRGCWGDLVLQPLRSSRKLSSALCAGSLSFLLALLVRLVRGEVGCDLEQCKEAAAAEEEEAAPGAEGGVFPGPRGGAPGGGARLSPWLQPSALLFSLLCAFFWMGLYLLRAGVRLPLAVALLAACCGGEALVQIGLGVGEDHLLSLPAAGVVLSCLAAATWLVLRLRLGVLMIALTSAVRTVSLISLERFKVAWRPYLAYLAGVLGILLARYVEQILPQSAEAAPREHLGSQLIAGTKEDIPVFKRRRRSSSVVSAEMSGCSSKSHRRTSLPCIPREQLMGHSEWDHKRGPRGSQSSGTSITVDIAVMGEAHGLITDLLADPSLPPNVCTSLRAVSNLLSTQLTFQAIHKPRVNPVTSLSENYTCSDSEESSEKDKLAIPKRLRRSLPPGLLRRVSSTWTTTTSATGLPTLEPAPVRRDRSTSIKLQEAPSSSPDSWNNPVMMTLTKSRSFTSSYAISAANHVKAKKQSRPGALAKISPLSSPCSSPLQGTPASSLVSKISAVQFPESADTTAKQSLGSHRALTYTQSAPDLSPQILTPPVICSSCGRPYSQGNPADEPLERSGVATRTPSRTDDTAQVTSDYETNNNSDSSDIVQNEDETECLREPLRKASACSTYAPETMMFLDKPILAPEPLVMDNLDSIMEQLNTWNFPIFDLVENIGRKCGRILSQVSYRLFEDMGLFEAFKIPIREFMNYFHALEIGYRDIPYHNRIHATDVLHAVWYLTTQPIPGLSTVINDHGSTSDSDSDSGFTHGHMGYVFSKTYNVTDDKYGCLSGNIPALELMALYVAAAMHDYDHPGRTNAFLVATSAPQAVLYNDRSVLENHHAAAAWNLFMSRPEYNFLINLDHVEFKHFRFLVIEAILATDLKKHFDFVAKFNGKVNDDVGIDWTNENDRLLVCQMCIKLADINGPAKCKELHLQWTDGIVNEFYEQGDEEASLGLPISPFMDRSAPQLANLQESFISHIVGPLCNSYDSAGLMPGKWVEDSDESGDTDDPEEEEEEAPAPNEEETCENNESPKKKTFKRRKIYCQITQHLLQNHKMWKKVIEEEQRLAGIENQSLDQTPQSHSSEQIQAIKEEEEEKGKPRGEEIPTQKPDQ

Structure (SMILES)	PDE 4 % inhibition ([1]; 10^-5 M)	PDE 4 % inhibition ([1]; 10^-6 M)	IC50 [1]	IC50 [2]	PDE 3 % inhibition (μM) [3]	PDE 5 % inhibition (μM) [4]
COc1ccc2c(c1OC1CCCC1)CCN=C2Cc1c(Cl)cncc1Cl [Compound 1, 5-Cyclopentyloxy-1-(3,5-dichloro-2-pridin-4-yl-methyl)-6-methoxy-3,4-dihydro-isoquinoline Hydrochloride]	96%	79%	148 ± 18 nM	252 ± 67 nM	0%	10%
COc1cc2c(cc1OC1CCCC1)C(Cc1c(Cl)cncc1Cl)=NCC2.Cl [Compound 2, 7-Cyclopentyloxy-1-(3,5-dichloro-pyridin-4-yl-methyl)-6-methoxy-3,4-dihydro-isoquinoline Hydrochloride]	88%	54%	1050 ± 191 nM	–	–	–
COc1ccc2c(c1OCCCCCc1ccccc1)CCN=C2Cc1c(Cl)cncc1Cl.Cl [Compound 3, 1-(3,5-Dichloro-pyridin-4-yl-methyl)-5-(5-phenylpentyloxy)-6-methoxy-3,4-dihydro-isoquinoline Hydrochloride]	–	93%	87.5 ± 17 nM	83 ± 16 nM	24%	12%
COc1cc2c(cc1OC1CCCC1)C(=O)C(c1c(Cl)cncc1Cl)CN2 (centres unmarked) [Compound 12, 6-Cyclopentyloxy-3-(3,5-dichloro-pyridin-4-yl)-7-methoxy-2,3-dihydro-1H-quinolin-4-one]	100%	94%	101 ± 21 nM	78.7 ± 16 nM	12%	10%
COC(=O)c1c(Cc2c(Cl)cncc2Cl)c2ccc(OC)c(OC3CCCC3)c2[nH]c1=O [Compound 8, 8-Cyclopentyloxy-4-(3,5-dichloro-pyridin-4-yl-methyl)-7-methoxy-2-oxo-1,2-dihydro-quinolin-carboxylic Acid Methyl Ester]	–	60%	–	–	–	–
COc1ccc2c(c1OCCCCCc1ccccc1)CCNC2Cc1c(Cl)cncc1Cl.Cl.Cl (centres unmarked) [Compound 4, 1-(3,5-dichloro-pyridin-4-yl-methyl)-5-(5-phenylpentyloxy)-6-methoxy-1,2,3,4-tetrahydro-isoquinoline Dihydrochloride]	–	54%	–	–	–	–
COc1cc2[nH]cc(-c3c(Cl)cncc3Cl)c(=O)c2cc1OC1CCCC1 [Compound 10, 6-Cyclopentyloxy-3-(3,5-dichloro-pyridin-4-yl)-7-methoxy-1H-quinolin-4-one]	–	73%	–	–	–	–
